From US20230073214A1, “BIOACTIVE RELEASING MEMBRANE FOR ANALYTE SENSOR” (DexCom, Inc., priority 2021, published 2023)

What was measured:
[1] = in vitro bioactive release profile of dexamethasone acetate from bioactive releasing membrane 70 (percent cumulative release by HPLC); type: physicochemical; details: over a time span of 16-35 days
Procedure: With reference to FIG. 5A, an exemplary in vitro bioactive release profiles for dexamethasone acetate is shown using exemplary bioactive releasing membrane 70. The percent cumulative release of dexamethasone acetate can be determined using HPLC, for example using a Phenomenex Kinetex 5μ EVO C18 100 Å, 50×3.0 mm column held at 25° C. with a 254 nm UV detector and an elution gradient of A: Water with 0.1% formic acid/B: Acetonitrile with 0.1% formic acid (vol/vol), where the gradient from time 0 to 2 minutes is 90% A/10% B; from 2-5 minutes is 10% A/90% B; and from 5 minutes is 90% A/10% B. Dexamethasone acetate and dexamethasone HPLC standards are prepared at concentrations of about 0.1-20 ug/mL.
With reference to FIG. 5B, experimental data of a release rate of a bioactive agent (dexamethasone acetate) from a bioactive releasing membrane 70 initially or during the first time period being greater than the release rate of the bioactive agent from the bioactive releasing membrane initially or during the second time period and the release rate of the bioactive agent from the bioactive releasing membrane initially or during the second time period is greater than the release rate of the bioactive agent from the bioactive releasing membrane initially or during the third time period is shown. […]

[2] = additional release experiments with dexamethasone salts in different bioactive releasing membrane combinations; type: physicochemical; details: in a water-soluble cellulosic based polymer
Procedure: Additional experiments were carried out using dexamethasone salts in different bioactive releasing membrane combinations.

Row | third release rate: release of the remaining amount [1] | release profile [2] | Compound
1 | approximately 10% | – | CC(=O)OCC(=O)[C@@]1(O)[C@H](C)C[C@H]2[C@@H]3CCC4=CC(=O)C=C[C@]4(C)[C@@]3(F)[C@@H](O)C[C@@]21C [dexamethasone acetate]
2 | – | bolus release profile | C[C@@H]1C[C@H]2[C@@H]3CCC4=CC(=O)C=C[C@]4(C)[C@@]3(F)[C@@H](O)C[C@]2(C)[C@@]1(O)C(=O)COP(=O)(O)O [dexamethasone sodium phosphate]
